Measured values taken from patent publication US20230381148A1, “HDAC6 INHIBITORS FOR TREATMENT OF METABOLIC DISEASE AND HFPEF” (Tenaya Therapeutics, Inc., priority 2021, published 2023).

System: HFD/L-NAME mice
Test: HFD/L-NAME HFpEF mouse model, TYA-11018 versus Empagliflozin for 9 weeks
Assay type: in vivo
Settings: TYA-11018 15 mg/kg, Empagliflozin 10 mg/kg
Method: After HFpEF phenotypes were established, mice received 15 mg/kg TYA-11018 or 10 mg/kg Empagliflozin, or vehicle orally once daily for 9 weeks. Health monitoring was performed weekly with body weights recorded. Glucose tolerance test was performed after 1st dose. Cardiac function was recorded by echocardiography after treatment for 9 weeks. End diastolic pressure (EDP) was measured by PV-Loop at terminal at 9 weeks after dosing.
Animals: Cohort of mice with established HFpEF phenotypes and age/sex matched wild type controls were used for dosing study. […] After acclimation for 1 week, one group of mice was fed with high fat diet containing 0.07% L-NAME (LabDiet 5G5V, St Louis, MO) for 15 weeks. The control group of mice were fed with normal chow (LabDiet 5053, St Louis, MO). […] Animals were housed in an animal research facility in accordance with the National Research Council of the National Academies guidelines for the care and use of laboratory animals.
A second group of mice was fed with standard chow for controls.
Transthoracic echocardiography was performed using a VisualSonics Vevo 2100 system equipped with MS400 transducer (Visual Sonics, Toronto, ON). LVEF and other indices of systolic function were obtained from short-axis M-mode scans at the midventricular level, as indicated by the presence of papillary muscles, in conscious, gently restrained mice. […]
Intraperitoneal glucose-tolerance tests were performed by injection of glucose (2 g/kg in saline) after 6 hour fasting (from 7 a.m. to 1 p.m.). Tail blood glucose levels (mg/dL) were measured by AimStrip Plus blood glucose strips used with the AimStrip Plus blood glucose monitoring system (Germaine Laboratories, San Antonio, TX) at 0 (baseline, before glucose dose), 15, 30, 45, 60 and 120 minutes after glucose administration.
The trachea was exposed by a midline incision from the base of the throat to just above the clavicle. […] The hemodynamic parameters were then recorded in close-chest mode. […]

## OC[C@H]1O[C@@H](c2ccc(Cl)c(Cc3ccc(O[C@H]4CCOC4)cc3)c2)[C@H](O)[C@@H](O)[C@@H]1O [Empagliflozin, empagliflozin]
  E/A ratio: decreased
  E/e′ ratio: decreased
  end diastolic pressure: reduced end diastolic pressure
